Source: patent US6645283B1, “Anthrapyridone compounds, water-based magenta ink composition, and method of ink-jet printing” (Nippon Kayaku Kabushiki Kaisha, priority 1998, dated 2003)

How the values were obtained:
Format in all cases: physicochemical
[1] = Water fastness test of recorded paper, dipped into water, stirred for 2 min, air-dried; settings: water 2 min; for Water fastness Grade: JIS color fading grey scale
From the text: (§1) Each water-based ink composition was produced by preparing the liquids which contain the anthrapyridone compounds (dyestuff components) of No.2, No.5 and No.15 respectively and have a composition of Table 2 as shown below, and then filtering through 0.45 μm membrane filter.
(§2) By using an ink-jet printer (Trade name: PICTY80L, made by NEC KK), ink-jet recordings were done on four types of recording sheets: a plain paper (Printer paper A4, TLB5A4S made by Canon KK), a special paper A (Color BJ Paper LC101 made by Canon KK), a special paper B (Coated paper for color image jetting, STX73A4 made by Sharp KK), and a glossy film (Special glossy film, MJA4SP6 made by Seiko-Epson KK).
A recorded paper was dipped into water in a beaker, stirred for 2 min, and air-dried. The change between before and after the test was judged by the JIS color fading grey scale. Alternatively, a color difference (ΔE) between before and after the test was measured by the above color determination system.

[2] = Solubility in water of the dyestuff
Procedure: (5) The wet cake obtained in above (4)was added in 1500 parts of methanol, followed by heating at 60-65° C. and stirring for 1 hr. The crystal was filtered to separate, washed with methanol and dried to obtain 42.0 parts of the compound of No.2 as a red crystal. λmax:523 nm (in water, the ammonium salt); solubility in water:100 g/l or above.
(2) The wet cake obtained in this (1) was desalted as in Example 1(5) to obtain 35.0 parts of the compound of No.5 as a red crystal. λmax:522 nm (in water, the ammonium salt); solubility in water:100 g/l or more.
(2) To the reaction solution of the above (1) was added 4.7 parts of the compound of Formula (5) (R1=CH3, R2=H) obtained as in Example 1 (1) and 1(2), followed by raising the temperature and dropping 10% aqueous sodium hydroxide at 60-65° C. to maintain the pH at 4-5 for 1 hr for the reaction. The solution was maintained for 1 hr at pH 6.5-7.0, and filtered to remove a little insoluble matter, to obtain the reaction solution containing the compound of No.15. The reaction solution was diluted with water to obtain 250 parts of the diluted solution, followed by heating at 60-65° C., adding 50 parts of sodium chloride and stirring for about 30 min to deposit crystal. After stirring for 1 hr, the crystal was filtered to separate, washed with 100 parts of 10% aqueous sodium chloride, and dried to obtain 8.9 parts of the sodium salt of the compound of No.15 as a red crystal. λmax:527 nm (in water); solubility in water:100 g/l or more.
The anthrapyridone dyestuff of the present invention is suitable for an ink-jet magenta dyestuff because it has values in hue and brightness close to those of the JNC standard magenta. The dyestuff of the present invention also, when used on a special paper, can provide good light fastness and water fastness. […] Further, the dyestuffs of No.2, No.5 and No.15 obtained in Example 1 to 3 have their water-solubilities of 100 g/l or more under an alkaline condition (pH 8-9) and therefore enable to prepare stable inks for ink-jetting. […]

[3] = Light fastness test of recorded image, carbon arc fade meter, 20 hours; settings: carbon arc 20 hours; for Light fastness Grade: JIS L-0841 blue scale
From the text: as §1, §2
A carbon arc fade meter (by Suga Testing Machine Co.) was used to irradiate carbon arc on the recorded images for 20 hours. Grade was judged according to JIS L-0841 blue scale. A color difference (ΔE) between before and after the test was measured by the above color determination system.

[4] = Plain Paper (PP), color difference before/after

Row | Structure (SMILES) | Water fastness (ΔE) ([1]; Glossy Film (GF)) | Water fastness Grade ([1]; Glossy Film (GF)) | Water fastness Grade ([1]; Plain Paper (PP)) | Water fastness (ΔE) [1, 4] | Water fastness (ΔE) ([1]; Special Paper A (SA)) | Water fastness Grade ([1]; Special Paper A (SA)) | Water fastness (ΔE) ([1]; Special Paper B (SB)) | Water fastness Grade ([1]; Special Paper B (SB)) | solubility in water [2] [mg/mL] | Light fastness (ΔE) ([3]; Glossy Film (GF)) | Light fastness Grade ([3]; Glossy Film (GF)) | Light fastness Grade ([3]; Plain Paper (PP)) | Light fastness (ΔE) [3, 4] | Light fastness (ΔE) ([3]; Special Paper A (SA)) | Light fastness Grade ([3]; Special Paper A (SA)) | Light fastness (ΔE) ([3]; Special Paper B (SB)) | Light fastness Grade ([3]; Special Paper B (SB))
1 | Cn1c(=O)cc2c3c(c(Nc4cc(Nc5nc(NCCS(=O)(=O)O)nc(Nc6cc(C(=O)O)cc(C(=O)O)c6)n5)ccc4S(=O)(=O)O)ccc31)C(=O)c1ccccc1-2 [No.2] | (3.5) | 4 | 3-4 | (8.6) | (2.2) | 4 | (5.5) | 3-4 | ≥ 100 | (3.6) | 4 | 4 | (3.7) | (11.1) | 3 | (7.2) | 3-4
2 | Cn1c(=O)cc2c3c(c(Nc4cc(Nc5nc(NCC(=O)O)nc(Nc6cc(C(=O)O)cc(C(=O)O)c6)n5)ccc4S(=O)(=O)O)ccc31)C(=O)c1ccccc1-2 [No.5] | (4.6) | 4 | 3-4 | (6.3) | (2.4) | 4 | (4.5) | 4 | ≥ 100 | (10.6) | 3-4 | 3-4 | (8.7) | (14.1) | 3 | (12.4) | 3
3 | Cn1c(=O)cc2c3c(c(Nc4cc(Nc5nc(Cl)nc(Nc6cc7c(S(=O)(=O)O)cc(S(=O)(=O)O)cc7cc6S(=O)(=O)O)n5)ccc4S(=O)(=O)O)ccc31)C(=O)c1ccccc1-2 [No.15] | (3.8) | 4 | 1 | (58.6) | (1.3) | 4 | (19.3) | 2 | ≥ 100 | (2.8) | 4 | 3-4 | (8.0) | (21.3) | 2 | (8.9) | 3-4
